Target: ALDH2 (Homo sapiens (Human), UniProt P05091)
Test: ALDH2 dehydrogenase activity / IC50 determination (propionaldehyde substrate)
Format: biochemical
Conditions: CB29 analogs
Method: The enzymatic activity of ALDH1A1, ALDH2 and ALDH3A1 were measured as described previously^[30,34,37,39]. The specific activities of the purified proteins were 1.9, 3.8 and 32 μmole/min/mg for ALDH1A1, ALDH2 and ALDH3A1 respectively.
(§1) All reactions were initiated by the addition of the aldehyde substrate. The inhibition curves were fit to the Logistic four parameter IC50 equation using the SigmaPlot (v11, StatSys). We characterized the mode of inhibition using steady-state kinetics through co-variation of inhibitor and substrate concentrations. The steady state kinetic measurements were performed in 100 mM Na2HPO4 buffer, pH 7.5. […] In all cases—including the control reactions lacking inhibitors, the final reaction mixture contained 2% (v/v) DMSO. The reaction was initiated by addition of substrate and the initial rate of product formation was determined on a Beckman DU-640. All data were fit to the non-linear velocity expressions for competitive, non-competitive, mixed-type non-competitive and uncompetitive inhibition^[40]. Appropriateness of the inhibition model was determined through analysis of goodness-of-fit and the residuals of those fits. Lineweaver-Burke plots were created using SigmaPlot (v11, StatSys) to visualize the inhibition patterns. All data represent the average of three independent experiments utilizing triplicate assays at each concentration point.
(§2) ALDH1A1, ALDH2 and ALDH3A1 activities were measured as described earlier^33,44,45. […] Reaction was initiated by the addition of the aldehyde substrate. […] The inhibition curves were fit to the Logistic four parameter IC50 equation using the SigmaPlot (v11, StatSys). Steady state kinetic experiments were performed by co-varying inhibitor and substrate concentrations. The steady state kinetic measurements were performed in 100 mM Na2HPO4 buffer, pH 7.5.

Sequence of ALDH2 (P05091 18-517): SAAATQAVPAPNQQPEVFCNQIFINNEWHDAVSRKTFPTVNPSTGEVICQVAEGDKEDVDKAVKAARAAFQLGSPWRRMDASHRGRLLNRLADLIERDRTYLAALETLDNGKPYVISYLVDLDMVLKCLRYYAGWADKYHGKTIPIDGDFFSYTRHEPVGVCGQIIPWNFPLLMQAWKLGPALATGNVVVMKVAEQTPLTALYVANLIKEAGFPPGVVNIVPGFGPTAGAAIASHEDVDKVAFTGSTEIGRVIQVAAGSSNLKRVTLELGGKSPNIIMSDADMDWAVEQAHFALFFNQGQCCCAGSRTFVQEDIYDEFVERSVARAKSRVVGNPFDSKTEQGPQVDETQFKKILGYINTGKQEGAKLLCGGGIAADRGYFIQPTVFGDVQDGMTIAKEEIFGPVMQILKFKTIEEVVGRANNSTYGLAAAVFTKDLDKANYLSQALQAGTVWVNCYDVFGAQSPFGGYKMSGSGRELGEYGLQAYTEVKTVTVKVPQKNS

Row | Compound | inhibitory potential toward ALDH2 activity in vitro (in words)
1 | CNS(=O)(=O)c1ccc(Nc2ccc(F)cc2)c([N+](=O)[O-])c1 [Compound 2] | no inhibitory potential
2 | Cc1ccc(Nc2ccc(S(C)(=O)=O)cc2[N+](=O)[O-])cc1F [Compound 8] | no inhibitory potential
3 | CNS(=O)(=O)c1ccc(Nc2ccc(OC)cc2)c([N+](=O)[O-])c1 [Compound 10] | no inhibitory potential
4 | CNS(=O)(=O)c1ccc(Nc2ccc(OC(F)F)cc2)c([N+](=O)[O-])c1 [Compound 11] | no inhibitory potential

Same assay, conditions: Table 4, hits from ChemDiv screen; NI not defined; read-out: IC50 (micromolar) ALDH2

Row | Compound | IC50
5 | O=C1Nc2ccccc2C12Oc1ccccc1C1CC(c3ccccc3)=NN12 (centres unmarked) [CD3] | 41.8 µM
6 | CCCSc1nnc2c(n1)OC(C(=O)c1ccc(OC)cc1)Nc1ccccc1-2 (centres unmarked) [CD4] | 1.4 µM
7 | CCSc1nnc2c(n1)OC(C(=O)c1ccc(OC)cc1)Nc1ccccc1-2 (centres unmarked) [CD5] | 1.2 µM
8 | CCOC(=O)CN1C(=O)C(O)(CC(=O)c2ccncc2)c2ccccc21 (centres unmarked) [CD8] | 11.1 µM
9 | Cc1ccc(S(=O)(=O)NC(O)C(=O)c2cccs2)cc1 (centres unmarked) [CD10] | 2.2 µM
10 | O=C(NC(O)C(=O)c1cccs1)c1cccnc1 (centres unmarked) [CD11] | 6.5 µM
11 | O=C(NC(O)C(=O)c1cccs1)c1ccncc1 (centres unmarked) [CD12] | 5.3 µM

Target: ALDH1A1 (Homo sapiens (Human), UniProt P00352)
Sequence (P00352 whole entry): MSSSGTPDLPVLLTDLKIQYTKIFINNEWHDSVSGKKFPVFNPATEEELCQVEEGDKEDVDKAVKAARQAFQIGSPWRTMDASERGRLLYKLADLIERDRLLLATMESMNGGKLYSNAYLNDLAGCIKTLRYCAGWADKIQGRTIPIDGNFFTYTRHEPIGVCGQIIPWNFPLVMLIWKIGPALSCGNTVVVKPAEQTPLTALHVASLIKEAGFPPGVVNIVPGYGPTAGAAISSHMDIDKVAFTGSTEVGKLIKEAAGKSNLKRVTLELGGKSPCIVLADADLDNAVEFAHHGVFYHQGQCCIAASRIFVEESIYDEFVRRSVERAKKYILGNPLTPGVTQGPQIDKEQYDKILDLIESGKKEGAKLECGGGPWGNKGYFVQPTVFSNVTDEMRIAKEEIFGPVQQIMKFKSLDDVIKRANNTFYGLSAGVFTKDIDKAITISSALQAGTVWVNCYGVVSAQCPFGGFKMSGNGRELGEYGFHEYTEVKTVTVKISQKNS
Test: ALDH1A1 dehydrogenase activity / IC50 determination (propionaldehyde substrate)
Format: biochemical
Conditions: CB29 analogs
Method: The enzymatic activity of ALDH1A1, ALDH2 and ALDH3A1 were measured as described previously^[30,34,37,39].
as §1, §2

Row | Compound | inhibitory potential / activity toward ALDH1A1 in vitro (in words)
12 | CNS(=O)(=O)c1ccc(Nc2ccc(F)cc2)c([N+](=O)[O-])c1 [Compound 2] | no inhibitory potential
13 | Cc1ccc(Nc2ccc(S(C)(=O)=O)cc2[N+](=O)[O-])cc1F [Compound 8] | no inhibitory potential
14 | CNS(=O)(=O)c1ccc(Nc2ccc(OC)cc2)c([N+](=O)[O-])c1 [Compound 10] | no inhibitory potential
15 | CNS(=O)(=O)c1ccc(Nc2ccc(OC(F)F)cc2)c([N+](=O)[O-])c1 [Compound 11] | no inhibitory potential

Same assay, conditions: Table 4, hits from ChemDiv screen; read-out: IC50 (micromolar) ALDH1A1

Row | Compound | IC50
16 | O=C1Nc2ccccc2C12Oc1ccccc1C1CC(c3ccccc3)=NN12 (centres unmarked) [CD3] | 6.5 µM
17 | CCCSc1nnc2c(n1)OC(C(=O)c1ccc(OC)cc1)Nc1ccccc1-2 (centres unmarked) [CD4] | 21.2 µM
18 | CCSc1nnc2c(n1)OC(C(=O)c1ccc(OC)cc1)Nc1ccccc1-2 (centres unmarked) [CD5] | 8.2 µM
19 | CCOC(=O)CN1C(=O)C(O)(CC(=O)c2ccncc2)c2ccccc21 (centres unmarked) [CD8] | 0.8 µM
20 | Cc1ccc(S(=O)(=O)NC(O)C(=O)c2cccs2)cc1 (centres unmarked) [CD10] | 4 µM
21 | O=C(NC(O)C(=O)c1cccs1)c1cccnc1 (centres unmarked) [CD11] | 5.9 µM
22 | O=C(NC(O)C(=O)c1cccs1)c1ccncc1 (centres unmarked) [CD12] | 4.2 µM

Same assay, conditions: Tables 1A/1B; propionaldehyde substrate; S.D. in parentheses

Row | Compound | IC50 (micromolar) ALDH1A1
23 | Cc1ccc(Nc2ccc(S(C)(=O)=O)cc2[N+](=O)[O-])cc1F [Compound 8] | WA (WA represents (30-50) % activation shown by 100 μM compound to respective enzymes)

Test system: A549 cells
Test: MTT assay for cell proliferation / mafosfamide sensitivity, A549
Format: cell-based
Conditions: 50 μM inhibitor + mafosfamide, FIG. 4A

Row | Compound | sensitivity to mafosfamide on co-treatment (in words), A549
24 | CNS(=O)(=O)c1ccc(Nc2ccc(F)cc2)c([N+](=O)[O-])c1 [Compound 2] | increased sensitivity to mafosfamide
25 | Cc1ccc(Nc2ccc(S(C)(=O)=O)cc2[N+](=O)[O-])cc1F [Compound 8] | increased sensitivity to mafosfamide
26 | CNS(=O)(=O)c1ccc(Nc2ccc(OC(F)F)cc2)c([N+](=O)[O-])c1 [Compound 11] | increased sensitivity to mafosfamide

Same assay, conditions: 50 μM inhibitor, FIG. 4A

Row | Compound | effect on cell proliferation as single agent (in words), A549
27 | CNS(=O)(=O)c1ccc(Nc2ccc(F)cc2)c([N+](=O)[O-])c1 [Compound 2] | little effect on cell proliferation
28 | Cc1ccc(Nc2ccc(S(C)(=O)=O)cc2[N+](=O)[O-])cc1F [Compound 8] | little effect on cell proliferation
29 | CNS(=O)(=O)c1ccc(Nc2ccc(OC)cc2)c([N+](=O)[O-])c1 [Compound 10] | little effect on cell proliferation
30 | CNS(=O)(=O)c1ccc(Nc2ccc(OC(F)F)cc2)c([N+](=O)[O-])c1 [Compound 11] | little effect on cell proliferation

Test system: SF767 cells
Test: MTT assay for cell proliferation / mafosfamide sensitivity, SF767
Format: cell-based
Conditions: 50 μM inhibitor + […] mafosfamide, FIG. 4B

Row | Compound | sensitivity to mafosfamide on co-treatment (in words), SF767
31 | CNS(=O)(=O)c1ccc(Nc2ccc(F)cc2)c([N+](=O)[O-])c1 [Compound 2] | increased sensitivity to mafosfamide
32 | Cc1ccc(Nc2ccc(S(C)(=O)=O)cc2[N+](=O)[O-])cc1F [Compound 8] | increased sensitivity to mafosfamide
33 | CNS(=O)(=O)c1ccc(Nc2ccc(OC(F)F)cc2)c([N+](=O)[O-])c1 [Compound 11] | increased sensitivity to mafosfamide

Same assay, conditions: 50 μM inhibitor, FIG. 4B

Row | Compound | effect on cell proliferation as single agent (in words), SF767
34 | CNS(=O)(=O)c1ccc(Nc2ccc(F)cc2)c([N+](=O)[O-])c1 [Compound 2] | little effect on cell proliferation
35 | Cc1ccc(Nc2ccc(S(C)(=O)=O)cc2[N+](=O)[O-])cc1F [Compound 8] | little effect on cell proliferation
36 | CNS(=O)(=O)c1ccc(Nc2ccc(OC)cc2)c([N+](=O)[O-])c1 [Compound 10] | little effect on cell proliferation
37 | CNS(=O)(=O)c1ccc(Nc2ccc(OC(F)F)cc2)c([N+](=O)[O-])c1 [Compound 11] | little effect on cell proliferation

Test system: not listed separately
Test: Solubility
Format: physicochemical
Conditions: in the presence of […] DMSO

Row | Compound | concentration of homogenous solution easily formed
38 | CNS(=O)(=O)c1ccc(Nc2ccc(F)cc2)c([N+](=O)[O-])c1 [Compound 2] | ≥ 100 µM
39 | Cc1ccc(Nc2ccc(S(C)(=O)=O)cc2[N+](=O)[O-])cc1F [Compound 8] | ≥ 100 µM
40 | CNS(=O)(=O)c1ccc(Nc2ccc(OC)cc2)c([N+](=O)[O-])c1 [Compound 10] | ≥ 100 µM
41 | CNS(=O)(=O)c1ccc(Nc2ccc(OC(F)F)cc2)c([N+](=O)[O-])c1 [Compound 11] | ≥ 100 µM

Target: T1, ALDH3A1 (Homo sapiens (Human), UniProt P30838)
T1 sequence (P30838 whole entry): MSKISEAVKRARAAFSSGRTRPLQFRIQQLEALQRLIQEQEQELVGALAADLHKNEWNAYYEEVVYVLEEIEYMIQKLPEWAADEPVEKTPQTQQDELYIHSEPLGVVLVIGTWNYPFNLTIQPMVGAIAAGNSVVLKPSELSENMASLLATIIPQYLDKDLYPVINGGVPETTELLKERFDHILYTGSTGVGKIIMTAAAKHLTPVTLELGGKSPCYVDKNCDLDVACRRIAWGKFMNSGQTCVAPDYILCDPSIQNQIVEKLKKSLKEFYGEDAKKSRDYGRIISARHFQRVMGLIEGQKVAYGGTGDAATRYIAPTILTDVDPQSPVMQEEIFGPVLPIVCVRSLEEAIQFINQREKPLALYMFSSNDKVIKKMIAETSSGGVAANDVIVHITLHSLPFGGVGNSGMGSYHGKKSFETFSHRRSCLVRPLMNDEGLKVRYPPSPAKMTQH
Test: not given
Conditions: read-out: IC50 (micromolar) ALDH3A1; Table 4, hits from ChemDiv screen

Row | Compound | IC50
42 | O=C1Nc2ccccc2C12Oc1ccccc1C1CC(c3ccccc3)=NN12 (centres unmarked) [CD3] | 38.5 µM
43 | CCCSc1nnc2c(n1)OC(C(=O)c1ccc(OC)cc1)Nc1ccccc1-2 (centres unmarked) [CD4] | 2.5 µM
44 | CCSc1nnc2c(n1)OC(C(=O)c1ccc(OC)cc1)Nc1ccccc1-2 (centres unmarked) [CD5] | 1.5 µM
45 | CCOC(=O)CN1C(=O)C(O)(CC(=O)c2ccncc2)c2ccccc21 (centres unmarked) [CD8] | 6.3 µM
46 | Cc1ccc(S(=O)(=O)NC(O)C(=O)c2cccs2)cc1 (centres unmarked) [CD10] | 3.4 µM
47 | O=C(NC(O)C(=O)c1cccs1)c1cccnc1 (centres unmarked) [CD11] | 10.2 µM
48 | O=C(NC(O)C(=O)c1cccs1)c1ccncc1 (centres unmarked) [CD12] | 5.6 µM

Same assay, conditions: read-out: IC50 (micromolar) ALDH3A1; Tables 1A/1B; benzaldehyde substrate; S.D. for three assays in parentheses

Row | Compound | IC50
49 | CNS(=O)(=O)c1ccc(Nc2ccc(F)cc2)c([N+](=O)[O-])c1 [Compound 2] | 26 µM
50 | Cc1ccc(Nc2ccc(S(C)(=O)=O)cc2[N+](=O)[O-])cc1F [Compound 8] | 10.8 µM
51 | CNS(=O)(=O)c1ccc(Nc2ccc(OC)cc2)c([N+](=O)[O-])c1 [Compound 10] | 31.7 µM
52 | CNS(=O)(=O)c1ccc(Nc2ccc(OC(F)F)cc2)c([N+](=O)[O-])c1 [Compound 11] | 24.7 µM

Same assay, conditions: read-out: IC50 against ALDH3A1; benzaldehyde substrate

Row | Compound | IC50
53 | CNS(=O)(=O)c1ccc(Nc2ccc(F)cc2)c([N+](=O)[O-])c1 [Compound 2] | 26 µM
54 | CNS(=O)(=O)c1ccc(Nc2ccc(OC)cc2)c([N+](=O)[O-])c1 [Compound 10] | 31 µM
55 | CNS(=O)(=O)c1ccc(Nc2ccc(OC(F)F)cc2)c([N+](=O)[O-])c1 [Compound 11] | 24 µM

Target: T1, ALDH3A1
Test: biochemical
Conditions: not given

Row | Compound | IC50
56 | Cc1ccc(Nc2ccc(S(C)(=O)=O)cc2[N+](=O)[O-])cc1F [Compound 8] | 10 µM
